In US11548900B2, “Oxazino-quinazoline and oxazino-quinoline type compound, preparation method and uses thereof” (BEIJING SCITECH-MQ PHARMACEUTICALS LIMITED, priority 2018, dated 2023) one finds IC50 data, which are given here for 17 compounds.

Where only a bound is given, the exact number is not on record here.

In general, IC50 refers to the concentration needed to halve the response being measured.

For assay [1], the target named is HER2 kinase (Homo sapiens (Human), UniProt P04626). The assay can be described thus: Inhibition of HER2 kinase activity (ULight-labeled PolyGT substrate). Conditions: HER2 kinase 10 nM, ATP 10 μM, 2 hours. The format is biochemical. In a few lines: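 Eleven-point 3-fold dilutions (0.042 nM–2.5 μM final, 1% DMSO) tested in duplicate against 10 nM HER2 with 100 nM ULight-labelled PolyGT and 10 μM ATP. Reaction ran 2 h at RT after 5 min pre-incubation; 665/615 nm TR-FRET ratio used to derive inhibition and IC50.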

In assay [2] the target is EGFR kinase (Homo sapiens (Human), UniProt P00533). The assay can be described thus: Inhibition of EGFR kinase activity (ULight-labeled JAK-1 (Tyr1023) peptide substrate). The assay is classed as biochemical. Conditions: EGFR kinase 0.35 nM, ATP 150 μM, 2 hours. In a few lines:
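TR-FRET kinase assay: 0.35 nM EGFR, 150 μM ATP, 100 nM substrate, 2 h at room temperature in the dark after 5 min enzyme-compound preincubation, 1% DMSO. Compounds tested as 11-point 3-fold series, 2.5 μM to 0.042 nM final, duplicate; IC50 from 665/615 nm ratio-based inhibition.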

The subject of assay [3] is BT474 cells. The assay is described as follows: Inhibition of cell proliferation, BT474 (CCK-8, 72 h). Particulars: Homo sapiens, BT-474, 72 h incubation. The format is cell-based. In outline: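 BT474 and HCC827 seeded at 10,000 and 3000 cells/well respectively, cultured overnight, then exposed to 10-point 3-fold compound dilutions (top stock 10 mM; 0.25% DMSO final) for 72 h. Viability by CCK-8, OD450; survival normalised to untreated and cell-free blanks, IC50 from curve fit.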

Assay [4] deals with HCC827 cells. The assay is described as follows: Inhibition of cell proliferation, HCC827 (CCK-8, 72 h). The format is cell-based. Conditions: Homo sapiens, 72 h incubation. On the procedure:
The assay for the inhibition of cell proliferation by small molecular compounds was carried out using the method as follows:
1. 600 μL pancreatin was added to a T75 cell culture flask, which was digested in a 37° C. incubator for about 1 min before 5 mL of DMEM complete culture solution was added, blew evenly, transferred to a 15 mL centrifuge tube, and centrifuged at 1000 rpm for 4 min;
2. The supernatant was removed and 5 mL DMEM complete culture solution was added, blew evenly, and 10 μL cell suspension was taken and mixed with 10 μL 0.4% Trypan Blue, and counted using a cell counter;
3. BT474 and HCC827 cell lines were seeded in 96-well plates at a cell density of 10,000 and 3000 cells/well/80 μL, respectively, and cultured overnight. Only sterile water was added to the 36 wells on the periphery of the 96-well plate without adding cells, and only the 60 wells in the center of the 96-well plate were used for cell assays and controls;
4. Dilution of compounds: the compounds were diluted with a 3-fold dilution to make 10 concentrations in total with an initial concentration of 10 mM;
5. 20 μL of different compounds with different concentrations were added to each well, and 20 μL of complete culture solution was added to the remaining wells. The final concentration of DMSO in each well is 0.25%;
6. After 72 h of incubation, 10 μL CCK-8 reagent was added to each well, and incubated at 37° C. for 1-2 h; and the OD value was read at 450 nm;
7. Cell survival rate (%)=[(As−Ab)/(Ac−Ab)]*100%
As: Assay well (medium containing cell, CCK-8, compound)
Ac: Control well (medium containing cell, CCK-8)
Ab: Blank well (CCK-8, medium without cell and compound)
8. The value was imported into Graphpad Prism5 software for the calculation of IC50s (compound concentration at which 50% maximum survival rate is observed).

Chain of EGFR kinase (P00533 25-1210): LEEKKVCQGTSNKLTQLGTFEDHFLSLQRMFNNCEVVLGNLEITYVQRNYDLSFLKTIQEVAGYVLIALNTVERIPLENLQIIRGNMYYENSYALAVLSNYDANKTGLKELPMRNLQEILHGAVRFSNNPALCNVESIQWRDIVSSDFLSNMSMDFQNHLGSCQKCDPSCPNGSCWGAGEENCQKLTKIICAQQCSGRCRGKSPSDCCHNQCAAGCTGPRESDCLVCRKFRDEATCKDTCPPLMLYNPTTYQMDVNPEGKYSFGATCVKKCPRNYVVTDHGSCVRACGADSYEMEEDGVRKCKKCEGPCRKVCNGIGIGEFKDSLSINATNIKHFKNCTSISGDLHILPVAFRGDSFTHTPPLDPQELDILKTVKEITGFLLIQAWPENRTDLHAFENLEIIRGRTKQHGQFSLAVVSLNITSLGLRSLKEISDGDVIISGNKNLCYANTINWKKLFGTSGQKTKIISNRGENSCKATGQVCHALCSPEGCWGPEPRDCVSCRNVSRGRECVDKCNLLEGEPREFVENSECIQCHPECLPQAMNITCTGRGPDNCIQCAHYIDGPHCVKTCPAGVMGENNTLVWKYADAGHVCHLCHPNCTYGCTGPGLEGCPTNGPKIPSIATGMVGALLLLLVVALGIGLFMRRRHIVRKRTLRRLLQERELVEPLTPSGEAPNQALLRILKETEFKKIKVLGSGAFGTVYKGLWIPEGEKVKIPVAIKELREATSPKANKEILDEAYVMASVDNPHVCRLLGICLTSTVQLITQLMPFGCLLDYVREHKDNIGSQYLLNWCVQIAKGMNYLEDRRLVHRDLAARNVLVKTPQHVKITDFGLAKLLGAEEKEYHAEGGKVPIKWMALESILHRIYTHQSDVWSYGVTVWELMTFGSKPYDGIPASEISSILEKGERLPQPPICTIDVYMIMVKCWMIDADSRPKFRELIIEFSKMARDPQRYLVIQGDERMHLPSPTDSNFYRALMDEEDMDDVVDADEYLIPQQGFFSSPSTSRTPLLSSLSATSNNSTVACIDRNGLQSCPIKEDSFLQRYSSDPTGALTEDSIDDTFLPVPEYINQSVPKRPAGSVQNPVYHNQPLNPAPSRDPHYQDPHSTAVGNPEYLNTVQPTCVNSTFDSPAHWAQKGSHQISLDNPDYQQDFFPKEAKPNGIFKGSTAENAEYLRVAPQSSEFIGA
Chain of HER2 kinase (P04626 23-1255): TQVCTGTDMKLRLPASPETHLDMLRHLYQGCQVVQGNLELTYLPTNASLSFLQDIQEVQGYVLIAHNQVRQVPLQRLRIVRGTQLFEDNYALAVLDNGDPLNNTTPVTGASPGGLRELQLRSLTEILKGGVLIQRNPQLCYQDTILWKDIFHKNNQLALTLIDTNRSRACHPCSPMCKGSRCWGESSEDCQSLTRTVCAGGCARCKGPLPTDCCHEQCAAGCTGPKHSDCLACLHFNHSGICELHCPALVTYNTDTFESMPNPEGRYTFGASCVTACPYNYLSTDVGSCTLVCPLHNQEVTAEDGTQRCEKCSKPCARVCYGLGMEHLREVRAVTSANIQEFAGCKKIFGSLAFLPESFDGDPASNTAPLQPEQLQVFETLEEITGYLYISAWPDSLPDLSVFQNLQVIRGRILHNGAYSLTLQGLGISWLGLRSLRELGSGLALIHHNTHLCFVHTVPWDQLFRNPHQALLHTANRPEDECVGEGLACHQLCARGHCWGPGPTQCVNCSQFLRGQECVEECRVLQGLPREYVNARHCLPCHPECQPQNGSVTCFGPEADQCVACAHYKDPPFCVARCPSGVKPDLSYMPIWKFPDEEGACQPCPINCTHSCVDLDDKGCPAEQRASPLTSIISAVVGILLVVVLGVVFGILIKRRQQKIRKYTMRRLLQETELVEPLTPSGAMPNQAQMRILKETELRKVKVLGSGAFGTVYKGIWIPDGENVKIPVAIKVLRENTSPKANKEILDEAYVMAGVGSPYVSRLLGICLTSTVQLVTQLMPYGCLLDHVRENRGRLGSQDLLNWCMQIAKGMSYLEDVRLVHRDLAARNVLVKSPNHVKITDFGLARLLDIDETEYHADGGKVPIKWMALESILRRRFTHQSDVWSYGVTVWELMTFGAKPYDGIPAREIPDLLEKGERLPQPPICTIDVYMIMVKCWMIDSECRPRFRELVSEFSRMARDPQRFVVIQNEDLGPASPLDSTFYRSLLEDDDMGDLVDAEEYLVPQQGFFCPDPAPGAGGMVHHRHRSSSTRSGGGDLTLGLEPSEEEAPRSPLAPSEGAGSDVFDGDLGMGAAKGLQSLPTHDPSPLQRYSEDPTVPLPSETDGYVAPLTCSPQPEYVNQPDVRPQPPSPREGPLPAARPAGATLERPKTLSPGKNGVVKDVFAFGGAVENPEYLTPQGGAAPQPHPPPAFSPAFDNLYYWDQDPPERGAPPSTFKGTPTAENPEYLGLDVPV

Consider `CN(C)C/C=C/C(=O)N1CCOc2c1ccc1ncnc(Nc3ccc(Oc4ccccc4)cc3)c21` [Example 44, (E)-4-(dimethylamino)-1-(10-((4-phenoxyphenyl)amino)-2,3-dihydro-4H-[1,4]oxazino[2,3-f]quinazolin-4-yl)but-2-en-1-one], for which the IC50 was ≤ 0.05 µM in assay [1], ≤ 0.05 µM in assay [2], ≤ 0.05 µM in assay [3] and 0.5 to 5 µM in assay [4].
Take `CN(C)C/C=C/C(=O)N1CCOc2c1ccc1ncnc(Nc3ccc(OCc4ccccn4)c(Cl)c3)c21` [Example 46, (E)-1-(10-((3-chloro-4-(pyridin-2-ylmethoxy)phenyl)amino)-2,3-dihydro-4H-[1,4]oxazino[2,3-f]quinazolin-4-yl)-4-(dimethylamino)but-2-en-1-one]: the IC50 is ≤ 0.05 µM in assay [1], ≤ 0.05 µM in assay [2], ≤ 0.05 µM in assay [3] and 0.05 to 0.5 µM in assay [4].
In the case of `Cc1cccc(Oc2ccc(Nc3ncnc4ccc5c(c34)OCCN5C(=O)/C=C/CN(C)C)cc2)c1` [Example 47, (E)-4-(dimethylamino)-1-(10-((4-(m-tolyloxy)phenyl)amino)-2,3-dihydro-4H-[1,4]oxazino[2,3-f]quinazolin-4-yl)but-2-en-1-one], the half-maximal inhibitory concentration (IC50) in assay [1] is ≤ 0.05 µM; in assay [2], ≤ 0.05 µM; in assay [3] it was ≤ 0.05 µM; in assay [4], 0.5 to 5 µM.
Turning to `CN(C)C/C=C/C(=O)N1CCOc2c1ccc1ncnc(Nc3ccc(Oc4cccc(Cl)c4)cc3)c21` [Example 48, (E)-4-(dimethylamino)-1-(10-((4-(3-chlorophenoxy)phenyl)amino)-2,3-dihydro-4H-[1,4]oxazino[2,3-f]quinazolin-4-yl)but-2-en-1-one], the IC50 in assay [1] was ≤ 0.05 µM; in assay [2] it was ≤ 0.05 µM; in assay [3], 0.05 to 0.5 µM; in assay [4], 0.5 to 5 µM.
With `COc1cccc(COc2ccc(Nc3ncnc4ccc5c(c34)OCCN5C(=O)/C=C/CN(C)C)cc2)c1` [Example 86, (E)-4-(dimethylamino)-1-(10-((4-((3-methoxybenzyl)oxy)phenyl)amino)-2,3-dihydro-4H-[1,4]oxazino[2,3-f]quinazolin-4-yl)but-2-en-1-one], the half-inhibitory concentration (IC50) in assay [1] is ≤ 0.05 µM; in assay [3] it was ≤ 0.05 µM; in assay [4] it was 0.5 to 5 µM.
On to `CN(C)C/C=C/C(=O)N1CCOc2c1ccc1ncnc(Nc3ccc(OCc4ccc(Cl)cc4)cc3)c21` [Example 87, (E)-4-(dimethylamino)-1-(10-((4-((4-chlorobenzyl)oxy)phenyl)amino)-2,3-dihydro-4H-[1,4]oxazino[2,3-f]quinazolin-4-yl)but-2-en-1-one], for which the figures for the IC50 in assay [1], in assay [3] and in assay [4] were ≤ 0.05 µM, 0.05 to 0.5 µM and 0.5 to 5 µM, respectively.
In the case of `Cc1ccc(COc2ccc(Nc3ncnc4ccc5c(c34)OCCN5C(=O)/C=C/CN(C)C)cc2)cc1` [Example 88, (E)-4-(dimethylamino)-1-(10-((4-((4-methylbenzyl)oxy)phenyl)amino)-2,3-dihydro-4H-[1,4]oxazino[2,3-f]quinazolin-4-yl)but-2-en-1-one], the IC50 is ≤ 0.05 µM in assay [1], ≤ 0.05 µM in assay [3] and 0.5 to 5 µM in assay [4].
With `CN(C)C/C=C/C(=O)N1CCOc2c1ccc1ncnc(Nc3ccc(OCc4cc(F)ccc4F)cc3)c21` [Example 89, (E)-1-(10-((4-((2,5-difluorobenzyl)oxy)phenyl)amino)-2,3-dihydro-4H-[1,4]oxazino[2,3-f]quinazolin-4-yl)-4-(dimethylamino)but-2-en-1-one], the 50% inhibitory concentration (IC50) in assay [1] was ≤ 0.05 µM; in assay [3] it was ≤ 0.05 µM; in assay [4], 0.5 to 5 µM.
Consider `CN(C)C/C=C/C(=O)N1CCOc2c1ccc1ncnc(Nc3ccc(OCc4cc(F)ccc4Cl)cc3)c21` [Example 90, (E)-1-(10-((4-((2-chloro-5-fluorobenzyl)oxy)phenyl)amino)-2,3-dihydro-4H-[1,4]oxazino[2,3-f]quinazolin-4-yl)-4-(dimethylamino)but-2-en-1-one], for which the half-inhibitory concentration (IC50) in assay [1] is ≤ 0.05 µM; in assay [3], ≤ 0.05 µM; in assay [4], 0.5 to 5 µM.
Take `CN(C/C=C/C(=O)N1CCOc2c1ccc1ncnc(Nc3ccc(OCc4ccccn4)c(Cl)c3)c21)C1CC1` [Example 100, (E)-1-(10-((3-chloro-4-(pyridin-2-ylmethoxy)phenyl)amino)-2,3-dihydro-4H-[1,4]oxazino[2,3-f]quinazolin-4-yl)-4-(cyclopropyl(methyl)amino)but-2-en-1-one]: the figures for the IC50 in assay [1], in assay [3] and in assay [4] were ≤ 0.05 µM, ≤ 0.05 µM and 0.05 to 0.5 µM, respectively.
For the compound `CC(C)NC/C=C/C(=O)N1CCOc2c1ccc1ncnc(Nc3ccc(OCc4ccccn4)c(Cl)c3)c21` [Example 102, (E)-1-(10-((3-chloro-4-(pyridin-2-ylmethoxy)phenyl)amino)-2,3-dihydro-4H-[1,4]oxazino[2,3-f]quinazolin-4-yl)-4-(isopropylamino)but-2-en-1-one], the IC50 in assay [1] is ≤ 0.05 µM; in assay [3], ≤ 0.05 µM; in assay [4], 0.05 to 0.5 µM.
In the case of `O=C(/C=C/CN1CCOCC1)N1CCOc2c1ccc1ncnc(Nc3ccc(OCc4ccccn4)c(Cl)c3)c21` [Example 103, (E)-1-(10-((3-chloro-4-(pyridin-2-ylmethoxy)phenyl)amino)-2,3-dihydro-4H-[1,4]oxazino[2,3-f]quinazolin-4-yl)-4-morpholinobut-2-en-1-one], the results for the IC50 in assay [1], in assay [3] and in assay [4] were ≤ 0.05 µM, ≤ 0.05 µM and 0.05 to 0.5 µM, respectively.
For `O=C(/C=C/CNC1CCC1)N1CCOc2c1ccc1ncnc(Nc3ccc(OCc4ccccn4)c(Cl)c3)c21` [Example 109, (E)-1-(10-((3-chloro-4-(pyridin-2-ylmethoxy)phenyl)amino)-2,3-dihydro-4H-[1,4]oxazino[2,3-f]quinazolin-4-yl)-4-(cyclobutylamino)but-2-en-1-one], the IC50 in assay [1] was ≤ 0.05 µM; in assay [3] it was ≤ 0.05 µM; in assay [4] it was 0.05 to 0.5 µM.
For `CN1CCC[C@H]1/C=C/C(=O)N1CCOc2c1ccc1ncnc(Nc3ccc(OCc4ccccn4)c(Cl)c3)c21` [Example 112, (S,E)-1-(10-((3-chloro-4-(pyridin-2-ylmethoxy)phenyl)amino)-2,3-dihydro-4H-[1,4]oxazino[2,3-f]quinazolin-4-yl)-3-(1-methylpyrrolidin-2-yl)prop-2-en-1-one], the IC50 is ≤ 0.05 µM in assay [1], ≤ 0.05 µM in assay [3] and 0.05 to 0.5 µM in assay [4].
For `CC#CC(=O)N1CCOc2c1ccc1ncnc(Nc3ccc(OCc4ccccn4)c(Cl)c3)c21` [Example 113, 1-(10-((3-chloro-4-(pyridin-2-ylmethoxy)phenyl)amino)-2,3-dihydro-4H-[1,4]oxazino[2,3-f]quinazolin-4-yl)but-2-yne-1-one], the IC50 in assay [1] is ≤ 0.05 µM; in assay [3], 0.05 to 0.5 µM; in assay [4] it was 0.5 to 5 µM.
Consider `CC1(O)CCN(C/C=C/C(=O)N2CCOc3c2ccc2ncnc(Nc4ccc(OCc5ccccn5)c(Cl)c4)c32)CC1` [Example 116, (E)-1-(10-((3-chloro-4-(pyridin-2-ylmethoxy)phenyl)amino)-2,3-dihydro-4H-[1,4]oxazino[2,3-f]quinazolin-4-yl)-4-(4-hydroxyl-4-methylpiperidin-1-yl)but-2-en-1-one], for which the results for the IC50 in assay [1], in assay [3] and in assay [4] were ≤ 0.05 µM, ≤ 0.05 µM and 0.05 to 0.5 µM, respectively.
`COCCN(C)C/C=C/C(=O)N1CCOc2c1ccc1ncnc(Nc3ccc(OCc4ccccn4)c(Cl)c3)c21` [Example 119, (E)-1-(10-((3-chloro-4-(pyridin-2-ylmethoxy)phenyl)amino)-2,3-dihydro-4H-[1,4]oxazino[2,3-f]quinazolin-4-yl)-4-((2-methoxyethyl)(methyl)amino)but-2-en-1-one]: the IC50 in assay [1] is ≤ 0.05 µM; in assay [3] it was ≤ 0.05 µM; in assay [4], 0.05 to 0.5 µM.
